This passage reports IC50 results from patent US20100317647A1 (priority 2009, published 2010).

Chain of human Cat S (P25774 115-331): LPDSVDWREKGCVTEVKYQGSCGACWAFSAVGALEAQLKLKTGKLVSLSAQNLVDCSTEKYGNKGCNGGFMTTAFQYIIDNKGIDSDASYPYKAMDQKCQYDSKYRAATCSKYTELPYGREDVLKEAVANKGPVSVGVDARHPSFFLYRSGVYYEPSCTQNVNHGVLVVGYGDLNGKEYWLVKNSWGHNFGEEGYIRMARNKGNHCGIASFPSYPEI

The target of this experiment is human Cat S (Homo sapiens, UniProt P25774). Put plainly: Cathepsin enzyme inhibition assay (fluorogenic peptide substrate cleavage). The experiment is classed as biochemical. The conditions noted are these: human Cat S 1 nM; substrate Z-Val-Val-Arg-AMC 20 μM; pH 6.5; fluorescence over 20 minutes. The gist of the method:
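IC50 values derived from fluorescence increase (ex 360 nm, em 465 nm) monitored for 20 minutes after substrate addition. Enzyme held at 1 nM with 20 μM Z-Val-Val-Arg-AMC, in pH 6.5 potassium phosphate buffer containing DTT, EDTA and Triton X-100.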
A word on the IC50: it is the midpoint of a concentration-inhibition curve. A lower IC50 goes with inhibition by little substance. Consider `CCOC(=O)N1CCC(C#N)(NC(=O)[C@@H]2C[C@@H](S(=O)(=O)c3ccccc3C(F)(F)F)C[C@H]2OCc2ccc(Cl)cc2)CC1` (racemic) [Example 241, 4-{[(1R,2R,4R) and (1S,2S,4S)-2-(4-Chloro-benzyloxy)-4-(2-trifluoromethyl-benzenesulfonyl)-cyclopentanecarbonyl]-amino}-4-cyano-piperidine-1-carboxylic acid ethyl ester], for which the IC50 turned out to be 12 nM. Regarding `N#CC1(NC(=O)[C@@H]2C[C@H](S(=O)(=O)c3ccccc3Cl)C[C@H]2CN2CCC(c3ccc(F)cc3)CC2)CC1` [Example 148, (1R,2R,4R)-4-(2-Chloro-benzenesulfonyl)-2-[4-(4-fluoro-phenyl)-piperidin-1-ylmethyl]-cyclopentanecarboxylic acid (1-cyano-cyclopropyl)-amide], half-maximal inhibition (IC50) required 515 nM. `N#CCNC(=O)[C@@H]1C[C@@H](S(=O)(=O)c2cccc3ccccc23)C[C@H]1C(=O)N1CCOCC1` [Example 36, (1R,2R,4R)-2-(Morpholine-4-carbonyl)-4-(naphthalene-1-sulfonyl)-cyclopentanecarboxylic acid cyanomethyl-amide] gave an IC50 of 0.4 nM. With `N#CCNC(=O)[C@@H]1C[C@@H](S(=O)(=O)c2ccccc2C(F)(F)F)C[C@H]1C(=O)N1CCOCC1` [Example 37, (1R,2R,4R)-2-(Morpholine-4-carbonyl)-4-(2-trifluoromethyl-benzenesulfonyl)-cyclopentanecarboxylic acid cyanomethyl-amide], inhibition was half-maximal at 0.9 nM (IC50).

Take `Cc1ccc(CO[C@@H]2C[C@H](S(=O)(=O)c3ccccc3Cl)C[C@H]2C(=O)NC2(C#N)CC2)cc1` (racemic) [Example 150, (1R,2R,4R) and (1S,2S,4S)-4-(2-Chlorophenylsulfonyl)-N-(1-cyanocyclopropyl)-2-(4-methylbenzyloxy)cyclopentanecarboxamide]: the IC50 came to 4.15 nM.

For `N#CC1(NC(=O)[C@@H]2C[C@@H](S(=O)(=O)c3ccccc3)C[C@H]2C(=O)O)CC1` [Example 10, (1R,2R,4R)-4-Benzenesulfonyl-2-(1-cyano-cyclopropylcarbamoyl)-cyclopentanecarboxylic acid], 425 nM corresponded to half-maximal inhibition (IC50). In the case of `CO[C@@H]1C[C@H](S(=O)(=O)c2ccc(OCC(F)(F)F)cc2Cl)C[C@H]1C(=O)NC1(C#N)CC1` (racemic) [Example 65, (1R,2R,4R) and (1S,2S,4S)-4-[2-Chloro-4-(2,2,2-trifluoro-ethoxy)-benzenesulfonyl]-2-methoxy-cyclopentanecarboxylic acid (1-cyano-cyclopropyl)-amide], the IC50 was 8 nM. Compared with the last compound, the IC50 is about 53-fold lower. On to `C[C@H](Oc1ccc(S(=O)(=O)[C@@H]2C[C@@H](C(=O)NC3(C#N)CC3)[C@H](C(=O)N3CC(F)(F)C3)C2)c(Cl)c1)C(F)(F)F` [Example 135, (1R,2R,4R)-4-[2-Chloro-4-((S)-2,2,2-trifluoro-1-methyl-ethoxy)-benzenesulfonyl]-2-(3,3-difluoro-azetidine-1-carbonyl)-cyclopentanecarboxylic acid (1-cyano-cyclopropyl)-amide], for which it took 2.4 nM to reach half-maximal inhibition (IC50). `CO[C@@H]1C[C@H](S(=O)(=O)c2ccc(-n3nc(C)ccc3=O)cc2Cl)C[C@H]1C(=O)NC1(C#N)CC1` (racemic) [Example 88, (1R,2R,4R) and (1S,2S,4S)-4-[2-Chloro-4-(3-methyl-6-oxo-6H-pyridazin-1-yl)-benzenesulfonyl]-2-methoxy-cyclopentanecarboxylic acid (1-cyano-cyclopropyl)-amide] returned an IC50 of 9.1 nM. `CO[C@@H]1C[C@H](S(=O)(=O)c2ccc(-c3ccccn3)cc2C(F)(F)F)C[C@H]1C(=O)NC1(C#N)CC1` (racemic) [Example 41, (1R,2R,4R) and (1S,2S,4S)-2-Methoxy-4-(4-pyridin-2-yl-2-trifluoromethyl-benzenesulfonyl)-cyclopentanecarboxylic acid (1-cyano-cyclopropyl)-amide] had an IC50 of 0.1 nM. With `N#CC1(NC(=O)[C@@H]2C[C@@H](S(=O)(=O)c3ccccc3)C[C@H]2C(=O)N2CCOCC2)CC1` [Example 2, (1R,2R,4R)-4-Benzenesulfonyl-2-(morpholine-4-carbonyl)-cyclopentanecarboxylic acid (1-cyano-cyclopropyl)-amide], half-maximal inhibition (IC50) required 0.7 nM. This IC50 lies about 7-fold higher than the previous one. The compound `C[C@H](Oc1ccc(S(=O)(=O)[C@@H]2C[C@@H](C(=O)NC3(C#N)CC3)[C@H](C(=O)N3CCC(F)(F)C3)C2)c(Cl)c1)C(F)(F)F` [Example 190, (1R,2R,4R)-4-[2-Chloro-4-((S)-2,2,2-trifluoro-1-methyl-ethoxy)-benzenesulfonyl]-2-(3,3-difluoro-pyrrolidine-1-carbonyl)-cyclopentanecarboxylic acid (1-cyano-cyclopropyl)-amide] yielded an IC50 of 0.84 nM. This IC50 and that of the compound before are within 1.5-fold of each other. In the case of `N#CC1(NC(=O)[C@@H]2C[C@@H](S(=O)(=O)c3ccccc3)C[C@H]2C(=O)N2CCCC2)CC1` [Example 23, (1R,2R,4R)-4-Benzenesulfonyl-2-(pyrrolidine-1-carbonyl)-cyclopentanecarboxylic acid (1-cyano-cyclopropyl)-amide] it was 1.5 nM; in that of `COC[C@@H]1C[C@@H](S(=O)(=O)c2ccccc2Cl)C[C@H]1C(=O)NCC#N` (single isomer, unassigned) [Example 104], 1200 nM; in that of `CO[C@@H]1C[C@H](S(=O)(=O)c2ccc(N3CCN(C)CC3)cc2C(F)(F)F)C[C@H]1C(=O)NC1(C#N)CC1` (racemic) [Example 161, (1R,2R,4R) and (1S,2S,4S)-2-Methoxy-4-[4-(4-methyl-piperazin-1-yl)-2-trifluoromethyl-benzenesulfonyl]-cyclopentanecarboxylic acid (1-cyano-cyclopropyl)-amide], 1.5 nM.

As to `N#CC1(NC(=O)C2CC(S(=O)(=O)c3ccc(OC4COC4)cc3C(F)(F)F)CC2C(=O)N2CC(F)(F)C2)CC1` (centres unmarked) [Example 127, 2-(3,3-Difluoro-azetidine-1-carbonyl)-4-[4-(oxetan-3-yloxy)-2-trifluoromethyl-benzenesulfonyl]-cyclopentanecarboxylic acid (1-cyano-cyclopropyl)-amide], the half-inhibitory concentration (IC50) worked out at 1.1 nM. In the case of `N#CC1(NC(=O)[C@@H]2C[C@@H](S(=O)(=O)c3ccccc3)C[C@H]2C(=O)Nc2ccc(F)cc2)CC1` [Example 42, (1R,2R,4S)-4-Benzenesulfonyl-cyclopentane-1,2-dicarboxylic acid 1-[(1-cyano-cyclopropyl)-amide]2-[(4-fluoro-phenyl)-amide]] it was 25.5 nM; in that of `COC[C@@H]1C[C@H](S(=O)(=O)c2ccccc2Cl)C[C@H]1C(=O)NCC#N` (single isomer, unassigned) [Example 103], 20.7 nM; in that of `N#CC1(NC(=O)[C@@H]2C[C@@H](S(=O)(=O)c3ccc(Br)cc3C(F)(F)F)C[C@H]2OC2CCS(=O)(=O)CC2)CC1` (racemic) [Example 181, (1R,2R,4R) and (1S,2S,4S)-4-(4-Bromo-2-trifluoromethyl-benzenesulfonyl)-2-[(tetrahydro-1,1-dioxo-2H-thiopyran-4-yl)oxy]-cyclopentanecarboxylic acid (1-cyano-cyclopropyl)-amide], 1.32 nM. On to `CO[C@@H]1C[C@H](S(=O)(=O)c2ccc(-c3cnn(CCO)c3)cc2C(F)(F)F)C[C@H]1C(=O)NC1(C#N)CC1` (racemic) [Example 170, (1R,2R,4R) and (1S,2S,4S)-4-{4-[1-(2-Hydroxy-ethyl)-1H-pyrazol-4-yl]-2-trifluoromethyl-benzenesulfonyl}-2-methoxy-cyclopentanecarboxylic acid (1-cyano-cyclopropyl)-amide], for which it took 0.587 nM to reach half-maximal inhibition (IC50). As to `CO[C@@H]1C[C@H](S(=O)(=O)c2ccc(O[C@H](C)C(F)(F)F)cc2Cl)C[C@H]1C(=O)NC1(C#N)CC1` (racemic) [Example 60, (1R,2R,4R) and (1S,2S,4S)-4-[2-Chloro-4-((R/S)-2,2,2-trifluoro-1-methyl-ethoxy)-benzenesulfonyl]-2-methoxy-cyclopentanecarboxylic acid (1-cyano-cyclopropyl)-amide], the IC50 was 26.5 nM. In the case of `CO[C@@H]1C[C@H](S(=O)(=O)c2ccc(-c3cnn(CC(=O)N(C)C)c3)cc2C(F)(F)F)C[C@H]1C(=O)NC1(C#N)CC1` (racemic) [Example 218, (1R,2R,4R) and (1S,2S,4S)-4-[4-(1-Dimethylcarbamoylmethyl-1H-pyrazol-4-yl)-2-trifluoromethyl-benzenesulfonyl]-2-methoxy-cyclopentanecarboxylic acid (1-cyano-cyclopropyl)-amide] it was 0.92 nM; in that of `N#CC1(NC(=O)[C@@H]2C[C@@H](S(=O)(=O)c3ccccc3)C[C@H]2C(=O)N2CC3(COC3)C2)CC1` [Example 11, (1R,2R,4R)-4-Benzenesulfonyl-2-(2-oxa-6-aza-spiro[3.3]heptane-6-carbonyl)-cyclopentanecarboxylic acid (1-cyano-cyclopropyl)-amide], 3 nM; in that of `CO[C@@H]1C[C@H](S(=O)(=O)c2ccc(-c3ccnnc3)cc2C(F)(F)F)C[C@H]1C(=O)NC1(C#N)CC1` (racemic) [Example 110, (1R,2R,4R) and (1S,2S,4S)-2-Methoxy-4-(4-pyridazin-4-yl-2-trifluoromethyl-benzenesulfonyl)-cyclopentanecarboxylic acid (1-cyano-cyclopropyl)-amide], 0.6 nM. On to `N#CCNC(=O)[C@H]1C[C@@H](S(=O)(=O)c2ccccc2Cl)C[C@@H]1O` (racemic) [Example 53, (1S,2S,4R) and (1R,2R,4S)-4-(2-Chloro-benzenesulfonyl)-2-hydroxy-cyclopentanecarboxylic acid cyanomethyl-amide], for which 6690 nM corresponded to half-maximal inhibition (IC50). In the case of `CO[C@@H]1C[C@H](S(=O)(=O)c2ccc(Oc3ccc(F)cc3)cc2Cl)C[C@H]1C(=O)NC1(C#N)CC1` (racemic) [Example 57, (1R,2R,4R) and (1S,2S,4S)-4-[2-Chloro-4-(4-fluoro-phenoxy)-benzenesulfonyl]-2-methoxy-cyclopentanecarboxylic acid (1-cyano-cyclopropyl)-amide] it was 21.8 nM.
